The structures appear in SMILES notation. “Also recorded” adds a separate entry of the source. Read-outs that look alike come from different tables or passages of the source.

Data set [1] deals with T1, mitochondrial F1F0-ATPase (Bos taurus, UniProt P13621+P32876). As to the kind of experiment: biochemical. Set-up: species or system bovine. The conditions noted are these: for Ki: oligomycin.
Data set [2] has as its target T1, mitochondrial F1F0-ATPase. As to the kind of experiment: biochemical. Set-up: species or system bovine. The conditions noted are these: for Ki: oligomycin. The source holds these as a separate data set.
Data set [3] deals with Jurkat cells. As to the kind of experiment: early O2− (ROS) response, 1 h. It is filed as cell-based. The method, then:
(§1) To detect O2^−, cells are incubated with DHE (10 μM) for 30 min at 37° C. and are analyzed by flow cytometry to measure ethidium fluorescence. Flow analysis of mitochondrial transmembrane potential (ψm) is conducted by labeling cells with DiOC6(3) (20 nM) for 15 min at 37 degrees C. A positive control for disruption of ψm is established using carbonyl cyanide m-chlorophenylhydrazone (CCCP, 50 μM). Caspase activation assays are performed with FAM-VAD-fluoromethylketone. Processing of the substrate is evaluated by flow cytometry.
(§2) Since an early mitochondrial superoxide (O2^−) mediates apoptosis induced by Bz-423, the O2^− response of cells 1 h following incubation with drug was examined, as well as cell death at 24 h, as previously described (see, e.g., Blatt, N. B., et al., 2002 J Clin Invest 110, 1123-1132; incorporated herein by reference in its entirety).

In data set [4] the target is T2, F1F0-ATPase, OSCP subunit (UniProt P48047).
T2 sequence (P48047 1-213): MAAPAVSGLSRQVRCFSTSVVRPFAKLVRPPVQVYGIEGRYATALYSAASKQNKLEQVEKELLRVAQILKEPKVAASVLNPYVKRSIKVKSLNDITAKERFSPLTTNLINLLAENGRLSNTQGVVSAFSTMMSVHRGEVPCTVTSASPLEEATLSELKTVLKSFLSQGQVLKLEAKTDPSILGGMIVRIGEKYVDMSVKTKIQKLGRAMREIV
As to the kind of experiment: F1F0-ATPase activity in SMPs reconstituted in the presence or absence of the OSCP. Type of data set: biochemical, bovine. On the set-up: not tied in print to the reconstitution assay. The following applies: FIG. 19C. On the procedure: An additional OSCP binding assay was conducted. […] Benzodiazepine derivative compounds that bind the OSCP include, but are not limited to: […]

The test system of the next data set is Ramos cells. As to the kind of experiment: early O2− (ROS) response, 1 h. Type of data set: cell-based, human. The following applies: Homo sapiens, Ramos, 1 h; read-out: ROS EC50 (μM), Ramos cells. The method, then: as §1, §2
Data set [5] relates to Jurkat cells. Nature of the data set: cell death at 24 h. Type of data set: cell-based. On the procedure: as §2
Another data set deals with Ramos B cells. Nature of the data set: cell death of Ramos B cells, propidium iodide exclusion by flow cytometry, 24 h. It is filed as cell-based, human. The conditions noted are these: Homo sapiens.
Data set [6] addresses F1F0-ATPase (Homo sapiens, UniProt P05496+P48047). The conditions noted are these: read-out: IC50 for oligomycin; cited from earlier work.
The target of data set [7] is F1F0-ATPase (Bos taurus, UniProt P13621+P32876). Nature of the data set: off-rate measurements, recovery of ATP synthesis of SMPs after dilution. Type of data set: biochemical, bovine. On the procedure: Inhibition of Na,K-ATPases with oligomycin is time-dependent and results from a slow rate of dissociation from the enzyme (0.05 s^−1) (see, e.g., Esmann, M. (1991) Biochim. Biophys. Acta 1064, 31-36; herein incorporated by reference in its entirety). Since time-dependent inhibition can have profound effects on the function of the F1F0-ATPase, the off-rate of Bz-423 and oligomycin during ATP synthesis was examined. […] Inhibited SMP suspensions were diluted into buffer and activity was measured over time. Enzymatic activity of the SMPs incubated with Bz-423 had recovered to 90% of control at 10 s, indicating rapid dissociation (see, FIG. 18). In contrast, the activity of the enzyme incubated with oligomycin was only 54% of the uninhibited activity at 10 s, and increased for several minutes after dilution (see, FIG. 18). The time-dependence of the recovery of activity fit to a single exponential yielding an apparent dissociation rate constant for Bz-423>0.3 s^−1. However, dissociation of oligomycin was complex and a portion of the inhibitor dissociated at least 10-fold slower, consistent with a tight-binding, slow-dissociating inhibitor (see, e.g., Morrison, J. F., and Walsh, C. T. (1988) Adv. Enzymol. Relat. Areas Mol. Biol. 61, 201-301; herein incorporated by reference in its entirety). Presumably, the constraints of a high-affinity inhibitor dissociating from the membrane embedded proton channel presented a significant barrier for dissociation resulting in a slow off-rate.
Off-rate measurements. Rate of inhibition of ATP synthesis was measured as described above with the following changes. A 20 μL aliquot of SMPs (1 mg mL^−1) in synthesis buffer (with 10 mM K2HPO4) was added to each well of a 96-well plate containing 2.5 μL of 100× drug (14 μM Bz-423 and 35 nM oligomycin, final) or DMSO vehicle control. The drug was diluted out by adding 200 μL of synthesis buffer to each well. Substratecoupling mixture (25 μL with 1 mM ADP) was added to each well at the indicated time point and the rate of NADP^+ reduction was monitored over time.

For data set [8] the following is noted: rodents, two daily doses; cited from earlier work.
The test system of the next data set is Na,K-ATPases. The following applies: cited from earlier work.
The mark [9] stands for this setting: Jurkat cells, 75 μM PK11195, with or without antioxidant pre-incubation.
Setting [10] is: synthesis, three-dimensional fit.
Setting [11] is: hydrolysis, three-dimensional fit.

As for `CCC(C)N(C)C(=O)c1cc2ccccc2c(-c2ccccc2Cl)n1` (centres unmarked) [PK11195], the EC50 was determined as 33 µM in [1] (bovine SMPs, read-out: ATPase activity EC50 (μM), Synthesis); 230 µM in data set [2] (bovine SMPs, read-out: ATPase activity EC50 (μM), Hydrolysis); 56 µM in the data set with Jurkat cells [3] (Homo sapiens, Jurkat, 1 h, read-out: ROS EC50 (μM), Jurkat cells); 100 µM in the data set with Ramos cells; 75 µM with Jurkat cells [5] (Homo sapiens, Jurkat, 24 h, read-out: Cell death EC50 (μM), Jurkat cells); 90 µM with Ramos B cells (Ramos, 24 h, read-out: Cell death EC50 (μM), Ramos cells). For the same molecule, in the data set on Ramos B cells (Ramos B cells, 24 h (Table 6), read-out: EC50 (μM), cell death), the EC50 was over 80 µM. In addition, the “inhibition of mitochondrial ATPase activity” value in data set [2] (80 μM) was “do not significantly inhibit mitochondrial ATPase activity”. In addition, the “% ROS+” value with Jurkat cells [3] (setting [9]) stood at 67.9 ± 5.0%. Moreover, the “dependence of F1F0-ATPase inhibition on the OSCP” value in data set [4] is given as “more potent inhibitor of F1F0-ATPase activity in the presence of the OSCP”. Also, the “% Cell death” value in the data set on Jurkat cells [5] (setting [9]) came to 85.5 ± 1.7%.
In the case of `CC[C@H]1/C=C/C=C/C[C@@H](C)[C@H](O)[C@@](C)(O)C(=O)[C@@H](C)[C@H](O)[C@@H](C)C(=O)[C@@H](C)[C@H](O)[C@@H](C)/C=C/C(=O)O[C@@H]2[C@H](C)[C@H](CC1)O[C@]1(CC[C@H](C)[C@H](C[C@@H](C)O)O1)[C@H]2C` [oligomycin, reference compound], the inhibition constant Ki in [1] (Ki (E), synthesis) was 0.0105 ± 0.0009 µM; in data set [1] (Ki (ES), synthesis) it was 0.012 ± 0.001 µM; in data set [2] (hydrolysis, read-out: Ki (E)), 0.011 ± 0.003 µM; in [2] (hydrolysis, read-out: Ki (ES)) it was 0.013 ± 0.001 µM. For the same molecule, the results for the Mechanism of inhibition entry in data set [1] (synthesis) and in data set [2] (hydrolysis) were “mixed inhibitor” and “noncompetitive inhibitor; also recorded: Non-competitive”, respectively. Also, the results for the “nE, cooperativity factor for competitive inhibition constant” value in data set [1] (synthesis) and in data set [2] (hydrolysis) were 3.6 ± 0.5 and 1.1 ± 0.3, respectively. Besides, the “nES, cooperativity factor for uncompetitive inhibition constant” value in data set [1] (synthesis) turned out to be 1.6 ± 0.3; in data set [2] (hydrolysis), 1.2 ± 0.1. Besides, the “K∞” value in [1] (setting [10]) was 0.12 ± 0.01 mM; in data set [2] (setting [11]), 0.12 ± 0.02 mM. Besides, the figures for the Vmax in [1] (setting [10]) and in data set [2] (setting [11]) were 0.089 ± 0.003 µmol/min/mg and 0.77 ± 0.03 µmol/min/mg, respectively. Further, the IC50 on F1F0-ATPase [6] is 0.01 µM. Further, the “slower dissociation of a portion of the inhibitor” value on F1F0-ATPase [7] is “at least 10 fold”. Also, the “reduction of F1F0-ATPase activity at the concentration produced after dilution” value at F1F0-ATPase [7] (1.4 μM Bz-423, 3.5 nM oligomycin) is 15%. Besides, on F1F0-ATPase [7] (14 μM Bz-423 or 35 nM oligomycin), the “ATP synthesis activity relative to that in the absence of inhibitor” value was 14%. Moreover, the “enzymatic activity recovered after dilution, % of control” value on F1F0-ATPase [7] (at 10 s after dilution) amounted to 54%. Moreover, in [8], the LD50 for oligomycin was 0.5 mg/kg. For the same molecule, the “rate of dissociation from the enzyme” value in the data set with Na,K-ATPases was 0.05 s⁻¹.

The record behind these values is patent US20090275099A1 (priority 2004, published 2009).
